Assays:
endometrium [1] = assay: McPhail test: endometrial differentiation in estradiol-pretreated rabbits; format: in vivo; conditions: rabbits pretreated with 5 μg 17β-estradiol s.c. for 6 days; levonorgestrel 8 μg/day oral and/or testosterone 20 mg/day s.c. for 5 days; scores 0-4
Protocol: The effects on endometrium of the progestogen levonorgestrel and the androgen testosterone were determined in rabbits according to the method of McPhail (Mc Phail M. K. “The assay of progestin” J Physiol (1934), 83, 145-156). Four groups of each 5 rabbits were pretreated with daily subcutaneous dosages of 5 μg 17β-estradiol for 6 days.
After pretreatment, 3 groups either received levonorgestrel at an oral dose of 8 μg per day for 5 days, testosterone in a subcutaneous dose of 20 mg per day for 5 days, or levonorgestrel and testosterone together in the aforementioned routes and doses for 5 days. The fourth group was used as the negative control.
Autopsy was performed after the treatment period and the uterus was weighed and histological sections were prepared from each uterine horn and these were microscopically evaluated according to the McPhail Index (scores 0-4; 0=no differentiation; 4=maximal differentiation).

[2] = Clinical study: ethinyl estradiol/levonorgestrel with or without DHEA (Example 2); format: in vivo; conditions: 50 mg DHEA daily oral added to ethinyl estradiol/levonorgestrel for 104 days, versus women not receiving DHEA
Protocol: A clinical study is conducted in 200 healthy young women. […] Vaginal spotting and bleeding is scored daily by the participants in a diary and the effects on general well being are scored at baseline and at each study visit (every 5 weeks during study drug administration) on a psychometric rating scale. The psychometric rating scale used is especially suited for identifying differences in a population of healthy young women. The scale is a 24-item (placid, sleepy, jittery, intense, lacking confidence, energetic, sensitive, tired, well-balanced, at-rest, drowsy, fearful, lively, sickly, in a good mood, irritable, lethargic, quiet, full-of-pep, optimistic, moody, active, tense, sad), 4-point (yes, definitely; yes, a bit; no, in fact not; no, definitely not) scale to be scored by the person themself. In addition, endocrine measurements are performed in a subgroup of the participants (17β-estradiol, progesterone, total testosterone, LH, FSH and SHBG).

[3] = Clinical study: 17β-estradiol/norethisterone acetate with or without DHEA (Example 3); format: in vivo; conditions: 50 mg DHEA daily oral added to 3 mg 17β-estradiol and 1.5 mg norethisterone acetate for 104 days, versus women not receiving DHEA
Protocol: A clinical study is conducted in 100 healthy young women. […] Vaginal spotting and bleeding is scored daily by the participants in a diary. The effects on general well being are scored at baseline and at each study visit (every 5 weeks during study drug administration) using the psychometric rating scale described in example 2.
Ovulation inhibition is investigated by analysing pregnanediol samples twice a week during 4 weeks between week 7 and 14. In addition, endocrine measurements are performed in a subgroup of the participants (17β-estradiol, progesterone, total testosterone, LH, FSH and SHBG).

endometrium [4] = conditions: DHEA applied on the dorsal skin of ovariectomized rats, all time intervals; cited from earlier work
androgen receptors = molecular target: T1, androgen receptors (Homo sapiens, UniProt P10275); conditions: precursors per se, in the female body; cited from earlier work
T1 sequence (P10275 1-920): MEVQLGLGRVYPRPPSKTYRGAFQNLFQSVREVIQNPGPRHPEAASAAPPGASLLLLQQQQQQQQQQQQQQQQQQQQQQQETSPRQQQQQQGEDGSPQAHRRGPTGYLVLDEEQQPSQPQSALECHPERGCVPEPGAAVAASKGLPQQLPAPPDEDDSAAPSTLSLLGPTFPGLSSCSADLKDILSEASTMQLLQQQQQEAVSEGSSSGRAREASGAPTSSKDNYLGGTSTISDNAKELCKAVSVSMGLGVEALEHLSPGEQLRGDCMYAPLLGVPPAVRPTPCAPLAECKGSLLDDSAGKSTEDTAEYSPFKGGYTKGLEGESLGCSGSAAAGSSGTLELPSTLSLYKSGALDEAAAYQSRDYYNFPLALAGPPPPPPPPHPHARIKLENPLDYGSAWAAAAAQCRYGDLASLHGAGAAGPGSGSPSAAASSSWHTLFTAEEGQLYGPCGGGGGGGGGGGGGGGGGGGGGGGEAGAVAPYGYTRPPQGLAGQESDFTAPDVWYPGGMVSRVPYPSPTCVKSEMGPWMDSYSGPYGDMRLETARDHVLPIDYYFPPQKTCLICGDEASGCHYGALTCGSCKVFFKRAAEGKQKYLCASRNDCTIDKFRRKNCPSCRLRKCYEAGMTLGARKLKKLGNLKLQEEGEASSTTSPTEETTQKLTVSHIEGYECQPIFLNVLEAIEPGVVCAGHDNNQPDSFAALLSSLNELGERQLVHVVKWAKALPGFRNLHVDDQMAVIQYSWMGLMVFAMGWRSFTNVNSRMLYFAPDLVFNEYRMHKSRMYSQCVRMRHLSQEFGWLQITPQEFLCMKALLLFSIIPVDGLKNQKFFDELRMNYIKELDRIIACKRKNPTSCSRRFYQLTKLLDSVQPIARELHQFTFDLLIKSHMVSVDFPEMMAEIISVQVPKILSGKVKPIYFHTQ

## C[C@]12CC[C@H]3[C@@H](CCC4=CC(=O)CC[C@@]43C)[C@@H]1CC[C@@H]2O [testosterone]
Endometrium [1]
  McPhail index: 2.9±0.1

## C#C[C@]1(O)CC[C@H]2[C@@H]3CCC4=CC(=O)CC[C@@H]4[C@H]3CC[C@@]21CC [levonorgestrel]
Endometrium [1]
  McPhail index: 2.1±0.4

## C[C@]12CC[C@H](O)CC1=CC[C@@H]1[C@@H]2CC[C@]2(C)C(=O)CC[C@@H]12 [DHEA, dehydroepiandrosterone]
[2]
  psychometric scores on items in the domain of energy: generally better scores
  side effects: less side effects
  vaginal breakthrough spotting and bleeding: less vaginal breakthrough spotting and bleeding
[3]
  psychometric scores on items in the domain of energy: generally better scores
  side effects: less side effects
  vaginal breakthrough spotting and bleeding: less vaginal breakthrough spotting and bleeding
Endometrium [4]
  state of the endometrium during DHEA treatment: remained atrophic

## CCCCCCCCCCC(=O)O[C@H]1CC[C@H]2[C@@H]3CCC4=CC(=O)CC[C@]4(C)[C@H]3CC[C@]12C [testosterone undecanoate]
Androgen receptors
  affinity for the androgen receptors: virtually no affinity

Reference: US8071576B2, “Method of preventing or treating benign gynaecological disorders” (Pantarhei Bioscience B.V., priority 2001, dated 2011)
